In patent US4794110A, “5-Aryl-11-substituted-5H,11H-pyrrolo[2,1-c][1,4]benzoxazepined as analgesic and hypotensive agents” (Hoechst-Roussel Pharmaceuticals, Inc., priority 1987, dated 1988):
Values joined by “and” are separate entries in the source; they are usually repeats but may differ in a detail not shown here. Equal values may be shown once.

How the values were obtained:
[1] = test system: 2-phenyl-1,4-benzoquinone-induced writhing; assay: 2-phenyl-1,4-benzoquinone-induced writhing test in mice (analgesic activity, phenylquinone writhing); assay type: in vivo
Excerpt: The compounds of formula I of the present invention are useful as analgesic agents due to their ability to alleviate pain in mammals. […] Exptl. Biol. Med., 95, 729 (1957)].

[2] = test system: spontaneous hypertensive rat; assay: Antihypertensive activity in the spontaneous hypertensive rat by the indirect tail cuff method; assay type: in vivo; conditions: mean arterial blood pressure, third day
Method: In this procedure a group of five animals are treated orally for three days with the test compound in relation to a control group of the same number. The drop in blood pressure is measured on the third day following administration.

In the case of `CN(C)CC1Oc2ccccc2C(c2ccccc2)n2cccc21.Cl` (single isomer, unassigned) [11-dimethylaminomethyl-5-phenyl-5H,11H--pyrrolo[2,1-c][1,4]b] [11-Dimethylaminomethyl-5-phenyl-5H,11H-pyrrolo[2,1-c][1,4]benzoxazepine hydrochloride], the “Analgesic PQW, % Inhibition of Writhing” value ([1]; 20 mg/kg, s.c., hydrochloride) was 24% and 35%.

In the case of `O=C(O)C(=O)O.c1ccc(CN2CCC(C3Oc4ccccc4C(c4ccccc4)n4cccc43)CC2)cc1` (centres unmarked) [11-(1-Benzyl-4-piperidinyl)-5-phenyl-5H,11H-pyrrolo[2,1-c][1,4]benzoxazepine oxalate], the “Decrease in Blood Pressure” value ([2]; 3 mg/kg, p.o.) was 44 mmHg and the “Analgesic PQW, % Inhibition of Writhing” value ([1]; 20 mg/kg, s.c.) was 34%.

With `C[C@H](CS)C(=O)N1CCC[C@H]1C(=O)O` [captopril, reference compound] the “Decrease in Blood Pressure” value ([2]; 10 mg/kg p.o., reference compound) was 33 mmHg.

`CCC(=O)O[C@](Cc1ccccc1)(c1ccccc1)[C@H](C)CN(C)C` [propoxyphene, reference compound] was tested, and the “Analgesic PQW, % Inhibition of Writhing” value ([1]; 3.9 mg/kg s.c., reference compound) was 50%.
